In US20240317706A1, “COMPOUNDS THAT MEDIATE PROTEIN DEGRADATION AND METHODS OF USE THEREOF” (Monte Rosa Therapeutics, Inc., priority 2021, published 2024):

Legend:
[1] = molecular target: CRBN-DDB1 (Homo sapiens, UniProt Q96SW2); test: Compound binding to CRBN by HTRF assay; conditions: CRBN-DDB1 2.5 nM, Cy5-Thalidomide 100 nM, 30 min; Ki from geometric mean IC50 by Cheng-Prustoff transformation
Description: Compound activity was monitored in a Homogenous Time-Resolved Fluorescence (HTRF) assay using 1-[5-({2-[2-(2-{[2-(2,6-dioxopiperidin-3-yl)-1,3-dioxo-2,3-dihydro-1H-isoindol-4-yl]oxy}acetamido)ethoxy]ethyl}carbamoyl)pentyl]-3,3-dimethyl-2-[(1E,3E)-5-[(2E)-1,3,3-trimethyl-5-sulfo-2,3-dihydro-1H-indol-2-ylidene]penta-1,3-dien-1-yl]-3H-indol-1-ium-5-sulfonate as a fluorescent probe. Biochemical assays were conducted in Greiner white 384 well HiBase plates (Cat. No 784075-25) in 10 μL total volume. A one pot detection solution of CRBN-DDB1 (2.5 nM), Anti-His Terbium Cryptate Gold (1×, PerkinElmer Cat. #: 61HI2TLB), and Cy5-Thalidomide (100 nM, Tenova Cat.: T52461) was prepared in 20 mM HEPES, 20 mM NaCl, 0.2 mM TCEP, 0.2 mM EDTA, and 0.005% Tween20 was dispensed to each assay plate. Compounds were stored in dry, ambient temperatures at 10 mM. A 10-point, 1:3 dilution series was prepared from 10 mM stock concentrations in Echo-compatible LDV plates. 10 nL of each compound dilution series was dispensed into assays wells using an Echo 650 (Labcyte inc. USA). 10 nL of 10 mM Lenalidomide was transferred into the active-control wells for the assay and 10 nL of DMSO was transferred into the neutral-control wells. The assay was then allowed to incubate for 30 min at ambient temperature after transferring compound. Plate measurements were taken on a Pherastar FSX (BMG Labtech, Germany) using the HTRF Red filter (Ex. 337 nm, em1: 620 nm, em2: 665 nm) (Flashes: 50, Integration time: 60-400 us, Z-height: 10 mm, Ratio-multiplier: 10,000). The HTRF signal was then subsequently normalized to the neutral and active controls. Analysis and IC50 values were derived using KNIME analytics (KNIME Zurich) transformation and fitting within Collaborative Drug Discovery (Collaborative Drug Discovery USA). Ki was derived from the geometric mean of the IC50 values using the Cheng-Prustoff transformation.

[2] = molecular target: T1, CDK2 (Homo sapiens, UniProt P24941); test: NanoBiT assay (CDK2 degradation); type: cell-based; conditions: HEK293, HEK293 clonal line with CRISPR KI HiBiT tag on CDK2, Endurazine live cell substrate, 24 hours
T1 construct: HEK293 clonal lines with CRISPR KI HiBiT tag on CDK2 proteins; host or cells: HEK293 clonal line, CRISPR knock-in HiBiT-CDK2, stably expressing LgBiT
Description: HEK293 clonal lines with CRISPR KI HiBiT tag on either CDK2 proteins and stably expressing LgBiT protein were obtained from Promega (Madison, WI). Cells were plated at 5000 cells per well using Multiflo (BioTek) in 384-well white solid bottom plates (Corning, 3570BC) in 25 ul volume in DMEM media (DMEM, high glucose, HEPES, no phenol red (ThermoFisher Scientific, 21063029)) containing 10% FBS (Corning, 35-075-CV), 1% Penicillin/Streptomycin ((ThermoFisher Scientific, 15140-122), and 1% Endurazine (Nano-Glo Endurazine Live Cell Substrate (Promega, N2571)). Cells were incubated for 16 hours at 37 C, 5% CO2. 75 nL of a compound at 30 μM were dosed into the plate using an Echo® 650 liquid handler (Labcyte). Cells were incubated at 37° C., 5% CO2 for 24 hours and then signal was read on a Pherastar FSX using “LUM plus” optic module.
Analysis was performed in Scinamic (Scinamic, Cambridge, MA). Luminescence response (R) was calculated by the formula: response=100*(S−N)/(P−N) where S is the signal of the well, N and P the mean negative and positive control values respectively of the same plate. The luminescence response was then fitted in Scinamic using a 3-parameter agonist logistic fit (hillslope=1, EC50>0, top/bottom unconstrained).

Sequence of CRBN-DDB1 (Q96SW2 whole entry): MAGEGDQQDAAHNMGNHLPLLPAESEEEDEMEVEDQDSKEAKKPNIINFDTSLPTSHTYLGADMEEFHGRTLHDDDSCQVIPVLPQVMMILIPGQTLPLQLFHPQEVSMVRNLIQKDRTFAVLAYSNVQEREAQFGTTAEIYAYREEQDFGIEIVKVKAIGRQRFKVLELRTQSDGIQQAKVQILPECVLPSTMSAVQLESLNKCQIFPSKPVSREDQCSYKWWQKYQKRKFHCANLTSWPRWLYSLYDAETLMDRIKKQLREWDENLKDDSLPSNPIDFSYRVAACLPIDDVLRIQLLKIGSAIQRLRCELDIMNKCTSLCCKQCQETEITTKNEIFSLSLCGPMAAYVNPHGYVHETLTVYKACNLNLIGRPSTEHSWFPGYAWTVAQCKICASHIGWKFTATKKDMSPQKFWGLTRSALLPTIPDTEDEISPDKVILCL
Sequence of CRBN-DDB1 (Q16531 whole entry partner): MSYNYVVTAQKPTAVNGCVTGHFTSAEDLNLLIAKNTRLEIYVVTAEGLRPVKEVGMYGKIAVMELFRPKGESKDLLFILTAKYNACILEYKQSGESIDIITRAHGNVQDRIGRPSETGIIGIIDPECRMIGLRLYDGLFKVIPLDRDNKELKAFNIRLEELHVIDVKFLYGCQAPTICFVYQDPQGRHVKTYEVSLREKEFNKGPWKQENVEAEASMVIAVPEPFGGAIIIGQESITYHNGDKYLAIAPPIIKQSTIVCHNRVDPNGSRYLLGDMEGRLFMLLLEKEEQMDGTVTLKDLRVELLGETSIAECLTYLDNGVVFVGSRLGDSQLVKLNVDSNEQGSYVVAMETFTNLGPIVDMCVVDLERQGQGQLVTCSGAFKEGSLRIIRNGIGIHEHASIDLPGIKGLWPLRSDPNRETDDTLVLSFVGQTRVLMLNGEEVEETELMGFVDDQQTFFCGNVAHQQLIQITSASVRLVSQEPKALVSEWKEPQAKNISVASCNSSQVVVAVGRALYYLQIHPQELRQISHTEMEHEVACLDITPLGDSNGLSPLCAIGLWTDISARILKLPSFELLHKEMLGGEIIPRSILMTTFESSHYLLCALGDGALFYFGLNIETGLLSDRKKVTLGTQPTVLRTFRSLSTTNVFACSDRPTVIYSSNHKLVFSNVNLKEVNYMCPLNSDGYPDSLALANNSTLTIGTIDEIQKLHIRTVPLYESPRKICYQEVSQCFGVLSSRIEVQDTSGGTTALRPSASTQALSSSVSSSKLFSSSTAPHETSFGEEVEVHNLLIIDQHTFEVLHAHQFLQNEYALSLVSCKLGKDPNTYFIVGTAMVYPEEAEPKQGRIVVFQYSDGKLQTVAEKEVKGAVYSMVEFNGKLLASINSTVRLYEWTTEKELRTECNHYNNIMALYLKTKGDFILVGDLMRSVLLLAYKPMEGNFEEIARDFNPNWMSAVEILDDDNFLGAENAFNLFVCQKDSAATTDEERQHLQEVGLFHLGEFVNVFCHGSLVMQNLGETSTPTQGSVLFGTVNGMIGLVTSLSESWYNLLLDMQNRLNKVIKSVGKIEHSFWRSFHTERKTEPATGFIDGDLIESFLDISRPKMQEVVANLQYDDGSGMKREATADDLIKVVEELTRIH

SMILES | Ki [1] | Dmax [2]
Nc1c(CNc2nnc(C3CC4(CCC4)C3)o2)ccc2c1C(=O)N(C1CCC(=O)NC1=O)C2 (stereo not shown) [Compound 144, 3-(7-amino-1-oxo-6-(((5-(spiro[3.3]heptan-2-yl)-1,3,4-oxadiazol-2-yl)amino)methyl)isoindolin-2-yl)piperidine-2,6-dione] | 100 to 1000 nM | 10 to 50%
O=C1CCC(N2Cc3ccc(CNc4nnc(C5CCCCC5)o4)cc3C2=O)C(=O)N1 (stereo not shown) [Compound 141, 3-(6-(((5-cyclohexyl-1,3,4-oxadiazol-2-yl)amino)methyl)-1-oxoisoindolin-2-yl)piperidine-2,6-dione] | 100 to 1000 nM | 10 to 50%
O=C1CCC(N2Cc3ccc(CNC(=O)OC4CC5(CCCC5)C4)cc3C2=O)C(=O)N1 (stereo not shown) [Compound 121, spiro[3.4]octan-2-yl ((2-(2,6-dioxopiperidin-3-yl)-3-oxoisoindolin-5-yl)methyl)carbamate] | 100 to 1000 nM | 10 to 50%
O=C1CCC(N2Cc3ccc(CNC(=O)OC(CC4CC4)C4CC5(CCC5)C4)cc3C2=O)C(=O)N1 (stereo not shown) [Compound 110, 2-cyclopropyl-1-(spiro[3.3]heptan-2-yl)ethyl ((2-(2,6-dioxopiperidin-3-yl)-3-oxoisoindolin-5-yl)methyl)carbamate] | 100 to 1000 nM | 10 to 50%
N#Cc1cc(CNC(=O)OCC2CC3(CCC3)C2)cc2c1CN(C1CCC(=O)NC1=O)C2=O (stereo not shown) [Compound 106, spiro[3.3]heptan-2-ylmethyl ((7-cyano-2-(2,6-dioxopiperidin-3-yl)-3-oxoisoindolin-5-yl)methyl)carbamate] | 100 to 1000 nM | 50 to 80%
COc1cc(CNC(=O)OCC2CC3(CCC3)C2)cc2c1CN(C1CCC(=O)NC1=O)C2=O (stereo not shown) [Compound 103, spiro[3.3]heptan-2-ylmethyl ((2-(2,6-dioxopiperidin-3-yl)-7-methoxy-3-oxoisoindolin-5-yl)methyl)carbamate] | ≤ 100 nM | 10 to 50%
Cc1cc(CNC(=O)OCC2CC3(CCC3)C2)cc2c1CN(C1CCC(=O)NC1=O)C2=O (stereo not shown) [Compound 105, spiro[3.3]heptan-2-ylmethyl ((2-(2,6-dioxopiperidin-3-yl)-7-methyl-3-oxoisoindolin-5-yl)methyl)carbamate] | ≤ 100 nM | 50 to 80%
O=C1CCC(N2Cc3ccc(CNC(=O)OC4CCC5(CC4)CC5)cc3C2=O)C(=O)N1 (stereo not shown) [Compound 130, spiro[2.5]octan-6-yl ((2-(2,6-dioxopiperidin-3-yl)-3-oxoisoindolin-5-yl)methyl)carbamate] | 100 to 1000 nM | 10 to 50%
CC1(COC(=O)NCc2ccc3c(c2)C(=O)N(C2CCC(=O)NC2=O)C3)CCOCC1 (stereo not shown) [Compound 83, (4-methyloxan-4-yl)methyl N-{[2-(2,6-dioxopiperidin-3-yl)-3-oxo-2,3-dihydro-1H-isoindol-5-yl]methyl}carbamate] | 100 to 1000 nM | ≤ 10%
O=C1CCC(N2Cc3c(Cl)cc(CNc4nnc(C5CC6(CCC6)C5)o4)cc3C2=O)C(=O)N1 (stereo not shown) [Compound 140, 3-(4-chloro-1-oxo-6-(((5-(spiro[3.3]heptan-2-yl)-1,3,4-oxadiazol-2-yl)amino)methyl)isoindolin-2-yl)piperidine-2,6-dione] | 100 to 1000 nM | 50 to 80%
CC(NC(=O)OCC1CC2(CCC2)C1)c1ccc2c(c1)C(=O)N(C1CCC(=O)NC1=O)C2 (stereo not shown) [Compound 114] | 100 to 1000 nM | 10 to 50%
O=C1CCC(N2Cc3ccc(C4(NC(=O)OCC5CC6(CCC6)C5)CC4)cc3C2=O)C(=O)N1 (stereo not shown) [Compound 118, spiro[3.3]heptan-2-ylmethyl (1-(2-(2,6-dioxopiperidin-3-yl)-3-oxoisoindolin-5-yl)cyclopropyl)carbamate] | 100 to 1000 nM | 50 to 80%
O=C1CCC(N2Cc3c(cc(CNc4nnc(C5CC6(CCC6)C5)o4)cc3C(F)F)C2=O)C(=O)N1 (stereo not shown) [Compound 143, 3-(4-(difluoromethyl)-1-oxo-6-(((5-(spiro[3.3]heptan-2-yl)-1,3,4-oxadiazol-2-yl)amino)methyl)isoindolin-2-yl)piperidine-2,6-dione] | ≤ 100 nM | 10 to 50%
O=C1CCC(N2Cc3ccc(CNc4nnc(C5CC6(CCC6)C5)o4)c(O)c3C2=O)C(=O)N1 (stereo not shown) [Compound 135, 3-(7-hydroxy-1-oxo-6-(((5-(spiro[3.3]heptan-2-yl)-1,3,4-oxadiazol-2-yl)amino)methyl)isoindolin-2-yl)piperidine-2,6-dione] | 100 to 1000 nM | 50 to 80%
O=C1CCC(N2Cc3ccc(CNC(=O)OCC4CCC[C@H]4C(F)(F)F)cc3C2=O)C(=O)N1 (mixture of isomers) [Compound 73, rac-[(1R,2R)-2-(trifluoromethyl)cyclopentyl]methyl N-{[2-(2,6-dioxopiperidin-3-yl)-3-oxo-2,3-dihydro-1H-isoindol-5-yl]methyl}carbamate] | 100 to 1000 nM | ≤ 10%
O=C1CCC(N2Cc3ccc(CNC(=O)OC[C@@H]4C[C@H]4c4ccccc4)cc3C2=O)C(=O)N1 (stereo partly drawn) [Compound 132, ((1R,2R)-2-phenylcyclopropyl)methyl ((2-(2,6-dioxopiperidin-3-yl)-3-oxoisoindolin-5-yl)methyl)carbamate] | 100 to 1000 nM | 10 to 50%

Results, then the molecule that gave them:

Ki [1] | Dmax [2] | SMILES
100 to 1000 nM | 10 to 50% | O=C1CCC(N2Cc3ccc(CNC(=O)OCCC4CC5(CCC5)C4)cc3C2=O)C(=O)N1 (stereo not shown) [Compound 124, 2-(spiro[3.3]heptan-2-yl)ethyl ((2-(2,6-dioxopiperidin-3-yl)-3-oxoisoindolin-5-yl)methyl)carbamate]
100 to 1000 nM | 10 to 50% | CC1(C)[C@H]2CC=C(CCOC(=O)NCc3ccc4c(c3)C(=O)N(C3CCC(=O)NC3=O)C4)[C@@H]1C2 (stereo partly drawn) [Compound 129, 2-((1R,5S)-6,6-dimethylbicyclo[3.1.1]hept-2-en-2-yl)ethyl ((2-(2,6-dioxopiperidin-3-yl)-3-oxoisoindolin-5-yl)methyl)carbamate]
100 to 1000 nM | 10 to 50% | CCC1(CCCOC(=O)NCc2ccc3c(c2)C(=O)N(C2CCC(=O)NC2=O)C3)CC1 (stereo not shown) [Compound 101, 3-(1-ethylcyclopropyl)propyl ((2-(2,6-dioxopiperidin-3-yl)-3-oxoisoindolin-5-yl)methyl)carbamate]
100 to 1000 nM | ≤ 10% | CC1(C)COC1COC(=O)NCc1ccc2c(c1)C(=O)N(C1CCC(=O)NC1=O)C2 (stereo not shown) [Compound 79, (3,3-dimethyloxetan-2-yl)methyl N-{[2-(2,6-dioxopiperidin-3-yl)-3-oxo-2,3-dihydro-1H-isoindol-5-yl]methyl}carbamate]
≤ 100 nM | ≤ 10% | CC(COC(=O)NCc1ccc2c(c1)C(=O)N(C1CCC(=O)NC1=O)C2)C1CCC1 (stereo not shown) [Compound 58, 2-cyclobutylpropyl N-{[2-(2,6-dioxopiperidin-3-yl)-3-oxo-2,3-dihydro-1H-isoindol-5-yl]methyl}carbamate]
100 to 1000 nM | 10 to 50% | O=C1CCC(N2Cc3ccc(CNC(=O)OCCCC4CCC4)cc3C2=O)C(=O)N1 (stereo not shown) [Compound 128, 3-cyclobutylpropyl ((2-(2,6-dioxopiperidin-3-yl)-3-oxoisoindolin-5-yl)methyl)carbamate]
≤ 100 nM | 10 to 50% | CC1(CCCCOC(=O)NCc2ccc3c(c2)C(=O)N(C2CCC(=O)NC2=O)C3)CC1 (stereo not shown) [Compound 134, 4-(1-methylcyclopropyl)butyl ((2-(2,6-dioxopiperidin-3-yl)-3-oxoisoindolin-5-yl)methyl)carbamate]
